Where only a bound is given, the exact number is not on record here.

T1 sequence (P16788 whole entry): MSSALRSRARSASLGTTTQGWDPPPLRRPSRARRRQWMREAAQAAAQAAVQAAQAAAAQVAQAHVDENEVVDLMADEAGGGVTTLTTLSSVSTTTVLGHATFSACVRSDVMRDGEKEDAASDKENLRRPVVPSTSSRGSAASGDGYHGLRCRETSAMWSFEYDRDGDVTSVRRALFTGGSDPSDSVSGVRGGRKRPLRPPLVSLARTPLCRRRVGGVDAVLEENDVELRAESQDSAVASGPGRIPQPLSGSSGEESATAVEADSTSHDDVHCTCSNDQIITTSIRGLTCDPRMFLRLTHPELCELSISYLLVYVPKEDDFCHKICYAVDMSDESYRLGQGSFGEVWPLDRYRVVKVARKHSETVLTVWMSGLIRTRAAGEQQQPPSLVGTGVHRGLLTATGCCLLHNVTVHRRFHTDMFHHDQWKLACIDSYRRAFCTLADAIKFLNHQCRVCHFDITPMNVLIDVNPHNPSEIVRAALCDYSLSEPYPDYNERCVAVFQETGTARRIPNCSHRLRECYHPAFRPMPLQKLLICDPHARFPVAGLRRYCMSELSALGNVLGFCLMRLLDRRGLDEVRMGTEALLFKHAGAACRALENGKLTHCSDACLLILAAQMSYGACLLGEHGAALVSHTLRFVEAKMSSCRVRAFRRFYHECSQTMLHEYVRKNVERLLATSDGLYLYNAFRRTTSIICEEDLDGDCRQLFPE

One test addresses T1, viral kinase pUL-97 (Human cytomegalovirus, UniProt P16788).
T1 construct: The pUL-97 gene was cloned into a baculovirus vector; GST (glutathione S-transferase) (N); made in house; host or cells: Sf9 insect cells, baculovirus
As to the kind of experiment: UL97 kinase assay on Immobilon plate. The test is classed as biochemical. The note with it: inhibition of UL 97 kinase activity; class by IC50 / % inhibition at 10 μM or 100 μM; read-out: Activity Class [A, B, C]. The essentials:
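GST-pUL97 from baculovirus-infected Sf9 cells phosphorylated myelin basic protein with ATP (3 μM in the added assay buffer) and γ-[33P]ATP in Tris-HCl pH 7.5 buffer with MnCl2 and DTT. Reaction ran 1 h at 30 °C with graded compound concentrations and was stopped with EDTA. 33P incorporation was measured by scintillation after filter capture and phosphoric acid washes.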
Turning to `CC(C)(C)c1ccc(-c2cncc(N3CCN(c4cnccn4)CC3)n2)cc1` [compound 333, 6-(4-tert-Butyl-phenyl)-2′,3′,5′,6′-tetrahydro-[2,1′;4′,2″]terpyrazine], the IC50 is 10 to 100 µM.

`Cc1ccc(-c2cncc(N3CCN(c4ccccc4F)CC3)n2)cc1` [compound 248, 4-(2-Fluoro-phenyl)-6′-p-tolyl-3,4,5,6-tetrahydro-2H-[1,2′]bipyrazinyl]: the IC50 was in the range of 10 to 100 µM.

As for `CC(=O)c1ccc(-c2cncc(N3CCN(c4ccc(C)cc4C)CC3)n2)s1` [compound 289, 1-{5-[4-(2,4-Dimethyl-phenyl)-3,4,5,6-tetrahydro-2H-[1,2′]bipyrazinyl-6′-yl]-thiophen-2-yl}-ethanone], the IC50 was 10 to 100 µM.

With `Cc1cc(C)cc(-c2cncc(N3CCN(c4cnccn4)CC3)n2)c1` [compound 344, 6-(3,5-Dimethyl-phenyl)-2′,3′,5′,6′-tetrahydro-[2,1′;4′,2″]terpyrazine], the IC50 lay in the range of 10 to 100 µM.

Consider `Cc1cccc(-c2cncc(N3CCN(c4ccncc4)CC3)n2)c1` [compound 219, 4-Pyridin-4-yl-6′-m-tolyl-3,4,5,6-tetrahydro-2H-[1,2′]bipyrazinyl], for which the IC50 was 1 to 10 µM.

As to `OCc1ccc(-c2cncc(N3CCN(c4ccc(F)cc4F)CC3)n2)cc1` [compound 200, {4-[4-(2,4-Difluoro-phenyl)-3,4,5,6-tetrahydro-2H-[1,2′]bipyrazinyl-6′-yl]-phenyl}-methanol], the IC50 lay within 10 to 100 µM.

Turning to `c1ccc(N2CCN(c3cncc(-c4csc5ccccc45)n3)CC2)cc1` [compound 247, 6′-Benzo[b]thiophen-3-yl-4-phenyl-3,4,5,6-tetrahydro-2H-[1,2′]bipyrazinyl], the IC50 was in the range of 1 to 10 µM.

Turning to `c1ccc(C2CCN(c3cncc(-c4csc5ccccc45)n3)CC2)cc1` [compound 319, 2-Benzo[b]thiophen-3-yl-6-(4-phenyl-piperidin-1-yl)-pyrazine], the IC50 lay in the range of 10 to 100 µM.

Take `CC(=O)c1cccc(-c2cncc(N3CCN(c4ccc(F)cc4F)CC3)n2)c1` [compound 273, 1-{3-[4-(2,4-Difluoro-phenyl)-3,4,5,6-tetrahydro-2H-[1,2′]bipyrazinyl-6′-yl]-phenyl}-ethanone]: the IC50 is 10 to 100 µM.

Turning to `COc1cccc(-c2cncc(N3CCN(c4cccc(OC)c4)CC3)n2)c1` [compound 366, 4,6′-Bis-(3-methoxy-phenyl)-3,4,5,6-tetrahydro-2H-[1,2′]bipyrazinyl], the IC50 fell in the range of 1 to 10 µM.

For `COc1ccc(N2CCN(c3cncc(-c4csc5ccccc45)n3)CC2)cc1` [compound 283, 6′-Benzo[b]thiophen-3-yl-4-(4-methoxy-phenyl)-3,4,5,6-tetrahydro-2H-[1,2′]bipyrazinyl], the IC50 was in the range of 1 to 10 µM.

`Cc1ccc(N2CCN(c3cncc(-c4cccc5ccccc45)n3)CC2)cc1` [compound 230, 6′-Naphthalen-1-yl-4-p-tolyl-3,4,5,6-tetrahydro-2H-[1,2′]bipyrazinyl]: the IC50 lay in the range of 10 to 100 µM.

Regarding `c1ccc(C2CCN(c3cncc(-c4ccoc4)n3)CC2)cc1` [compound 277, 2-Furan-3-yl-6-(4-phenyl-piperidin-1-yl)-pyrazine], the IC50 was 10 to 100 µM.

For `N#Cc1ccc(-c2cncc(N3CCN(c4ccccn4)CC3)n2)cc1` [compound 303, 4-(4-Pyridin-2-yl-3,4,5,6-tetrahydro-2H-[1,2′]bipyrazinyl-6′-yl)-benzonitrile], the IC50 lay within 1 to 10 µM.

As for `COc1cccc(N2CCN(c3cncc(-c4ccc(CO)cc4)n3)CC2)c1` [compound 323, {4-[4-(3-Methoxy-phenyl)-3,4,5,6-tetrahydro-2H-[1,2′]bipyrazinyl-6′-yl]-phenyl}-methanol], the IC50 fell in the range of 1 to 10 µM.

On to `COc1ccc(N2CCN(c3cncc(-c4ccc(C(C)(C)C)cc4)n3)CC2)cc1OC` [compound 263, 6′-(4-tert-Butyl-phenyl)-4-(3,4-dimethoxy-phenyl)-3,4,5,6-tetrahydro-2H-[1,2′]bipyrazinyl], for which the IC50 fell in the range of 10 to 100 µM.

`Cc1ccc(-c2cncc(N3CCN(c4cccc(Cl)c4)CC3)n2)cc1` [compound 237, 4-(3-Chloro-phenyl)-6′-p-tolyl-3,4,5,6-tetrahydro-2H-[1,2′]bipyrazinyl]: the IC50 is 10 to 100 µM.

In the case of `COc1cccc(N2CCN(c3cncc(-c4ccc(C(F)(F)F)cc4)n3)CC2)c1` [compound 356, 4-(3-Methoxy-phenyl)-6′-(4-trifluoromethyl-phenyl)-3,4,5,6-tetrahydro-2H-[1,2′]bipyrazinyl], the IC50 was in the range of 1 to 10 µM.

The test is the same for the next values; noted with them: inhibition of UL 97 kinase activity; class by IC50 / % inhibition at 10 or 100 μM; read-out: Activity Class [A, B, C].
As for `COc1ccc(N2CCN(c3cncc(-c4ccc(C(N)=O)cc4)n3)CC2)cc1OC` [compound 20, 4-[4-(3,4-Dimethoxyphenyl)-3,4,5,6-tetrahydro-2H-[1,2′]bipyrazinyl-6′-yl)-benzamide], the IC50 was less than 1 µM.

With `OCc1ccc(-c2cncc(N3CCN(c4ccccc4F)CC3)n2)cc1` [compound 125, {4-[4-(2-Fluoro-phenyl)-3,4,5,6-tetrahydro-2H-[1,2′]bipyrazinyl-6′-yl]-phenyl}-methanol], the IC50 lay within 1 to 10 µM.

Regarding `Cc1cc(C)cc(-c2cncc(N3CCN(c4ccncc4)CC3)n2)c1` [compound 165, 6′-(3,5-Dimethyl-phenyl)-4-pyridin-4-yl-3,4,5,6-tetrahydro-2H-[1,2′]bipyrazinyl], the IC50 lay within 1 to 10 µM.

As for `FC(F)(F)c1ccc(-c2cncc(N3CCN(c4ccccc4)CC3)n2)cc1` [compound 193, 4-Phenyl-6′-(4-trifluoromethyl-phenyl)-3,4,5,6-tetrahydro-2H-[1,2′]bipyrazinyl], the IC50 fell in the range of 1 to 10 µM.

Regarding `Fc1ccc(-c2cncc(N3CCN(c4ccccn4)CC3)n2)c(F)c1` [compound 19, 6′-(2,4-Difluoro-phenyl)-4-pyridin-2-yl-3,4,5,6-tetrahydro-2H-[1,2′]bipyrazinyl], the IC50 fell in the range of 10 to 100 µM.

On to `Fc1ccc(-c2cncc(N3CCN(c4cccc(Cl)c4)CC3)n2)cc1` [compound 99, 4-(3-Chloro-phenyl)-6′-(4-fluoro-phenyl)-3,4,5,6-tetrahydro-2H-[1,2′]bipyrazinyl], for which the IC50 is 1 to 10 µM.

With `CSc1ccc(-c2cncc(N3CCN(c4ccccc4)CC3)n2)cc1` [compound 120, 6′-(4-Methylsulfanyl-phenyl)-4-phenyl-3,4,5,6-tetrahydro-2H-[1,2′]bipyrazinyl], the IC50 lay within 1 to 10 µM.

Regarding `CC(=O)Nc1cccc(-c2cncc(N3CCN(c4cccc5[nH]ccc45)CC3)n2)c1` [compound 36, N-{3-[4-(1H-Indol-4-yl)-3,4,5,6-tetrahydro-2H-[1,2′]bipyrazinyl-6′-yl]-phenyl}-acetamide], the IC50 fell in the range of 10 to 100 µM.

Turning to `Fc1cc(-c2cncc(N3CCN(c4ccccc4F)CC3)n2)ccc1-c1ccccc1` [compound 128, 6′-(2-Fluoro-biphenyl-4-yl)-4-(2-fluoro-phenyl)-3,4,5,6-tetrahydro-2H-[1,2′]bipyrazinyl], the IC50 is 10 to 100 µM.

Regarding `FC(F)(F)c1cccc(N2CCN(c3cncc(-c4csc5ccccc45)n3)CC2)c1` [compound 158, 6′-Benzo[b]thiophen-3-yl-4-(3-trifluoromethyl-phenyl)-3,4,5,6-tetrahydro-2H-[1,2′]bipyrazinyl], the IC50 lay within 10 to 100 µM.

For the molecule `NC(=O)c1ccc(-c2cncc(N3CCN(c4ccccc4)CC3)n2)cc1` [Comp. 68, 4-(4-Phenyl-3,4,5,6-tetrahydro-2H-[1,2′]bipyrazinyl-6′-yl)-benzamide], the IC50 was less than 1 µM.

Regarding `CSc1ccc(-c2cncc(N3CCN(c4ccc(C)cc4)CC3)n2)cc1` [compound 137, 6′-(4-Methylsulfanyl-phenyl)-4-p-tolyl-3,4,5,6-tetrahydro-2H-[1,2′]bipyrazinyl], the IC50 fell in the range of 1 to 10 µM.

With `COc1ccccc1N1CCN(c2cncc(-c3ccoc3)n2)CC1` [compound 90, 6′-Furan-3-yl-4-(2-methoxy-phenyl)-3,4,5,6-tetrahydro-2H-[1,2′]bipyrazinyl], the IC50 is 1 to 10 µM.

For `CC(=O)c1ccc(N2CCN(c3cncc(-c4cccc(C)c4C)n3)CC2)cc1` [compound 150], the IC50 was 10 to 100 µM.

For the molecule `c1ccc(Oc2ccc(-c3cncc(N4CCN(c5ccncc5)CC4)n3)cc2)cc1` [compound 163, 6′-(4-Phenoxy-phenyl)-4-pyridin-4-yl-3,4,5,6-tetrahydro-2H-[1,2′]bipyrazinyl], the IC50 lay within 1 to 10 µM.

In the case of `Nc1ncc(-c2ccc3ccccc3c2)nc1N1CCN(c2ccncc2)CC1` [compound 73, 6′-Naphthalen-2-yl-4-pyridin-4-yl-3,4,5,6-tetrahydro-2H-[1,2′]bipyrazinyl-3′-ylamine], the IC50 is less than 1 µM.

Consider `CCOc1ccc(-c2cncc(N3CCN(c4ccc(OC)c(OC)c4)CC3)n2)cc1` [compound 45, 4-(3,4-Dimethoxy-phenyl)-6′-(4-ethoxy-phenyl)-3,4,5,6-tetrahydro-2H-[1,2′]bipyrazinyl], for which the IC50 was 1 to 10 µM.

Consider `O=C(c1ccco1)N1CCN(c2cncc(-c3cccc(CO)c3)n2)CC1` [compound 58, Furan-2-yl-[6′-(3-hydroxymethyl-phenyl)-2,3,5,6-tetrahydro-[1,2′]bipyrazinyl-4-yl]-methanone], for which the IC50 is 10 to 100 µM.

Turning to `COc1ccc(-c2cncc(N3CCN(c4ccc(F)cc4)CC3)n2)cc1OC` [compound 139, 6′-(3,4-Dimethoxy-phenyl)-4-(4-fluoro-phenyl)-3,4,5,6-tetrahydro-2H-[1,2′]bipyrazinyl], the IC50 was 1 to 10 µM.

For `CC(=O)c1ccc(-c2cncc(N3CCN(c4cccc(Cl)c4)CC3)n2)cc1` [compound 103, 1-{4-[4-(3-Chloro-phenyl)-3,4,5,6-tetrahydro-2H-[1,2′]bipyrazinyl-6′-yl]-phenyl}-ethanone], the IC50 was 1 to 10 µM.

Regarding `Fc1ccc(-c2cncc(N3CCN(c4ccccc4F)CC3)n2)cc1` [compound 114, 4-(2-Fluoro-phenyl)-6′-(4-fluoro-phenyl)-3,4,5,6-tetrahydro-2H-[1,2′]bipyrazinyl], the IC50 was in the range of 1 to 10 µM.

The record behind these values is patent publication US20080194574A1, “Pyrazine Derivatives As Effective Compounds Against Infectious Diseases” (AXXIMA PHARMACEUTICALS AG, priority 2003, published 2008).
